Source: US20240366611A1, “METHODS OF TREATING A DISEASE OR DISORDER” (Ascentage Pharma (Suzhou) Co., Ltd., priority 2021, published 2024)

What was measured:
[1] = tested on: H3K27me3 in PBMC monocytes; test: H3K27me3 level in PBMC monocytes (FACS, H3K27me3/H3 ratio); format: in vivo, CD-1 mice; conditions: vs vehicle
Experimental: (§1) Female CD-1 mice (8 weeks old) were housed and handled in a temperature-controlled environment with a 12-h light/12-h dark cycle. A total of 25 mice were assigned to 5 groups by randomization based on body weight, followed by 5 days of treatment with vehicle (po, qd), 3 mg/kg Cpd. 73 (po, qd), 10 mg/kg Cpd. 73 (po, qd), 30 mg/kg Cpd. 73 (po, qd), or 90 mg/kg Cpd. 73 (po, qd). The protocols and procedures involving the care and use of animals were approved by the Institutional Animal Care and Use Committee (IACUC) of WuXiAppTec (Shanghai) Co., Ltd. (Shanghai, China).
Mice were euthanatized 4 hours post the last dose. Whole blood and bone marrow were collected. Bone marrow cells were flushed from femur and tibia with IMDM+/+ (IMDM, 10% heat inactivated FBS, 100 U/mL penicillin and 100 μg/mL streptomycin). Aggregate was removed by passing through 40 μm cell strainer. 5 mL DPBS was used to pellet the cells after centrifugation, and the cell number was counted. Whole blood was added with 1×RBC lysis buffer remove RBC (whole blood: 1×RBC lysis buffer=1:9), and mononuclear cells were collected by centrifugation. The cells were then washed with 1×DPBS for once and resuspended in 3 ml DPBS after centrifugation followed by cell number counting.
Bone marrow cells were stained with FITC-conjugated anti-mouse TER-119 antibody (Thermo Fisher, 11-5921-82) and eFluor 506-conjugated anti-mouse CD45 antibody (Thermo Fisher, 69-0451-82). TER-119+ cells were erythroid lineage cells. PBMC were stained with eFlour 450-conjugated anti-mouse CD11b antibody (Invitrogen, 48-0112-82), PerCP-eFluor710-conjugated anti-mouse CD3 antibody (Invitrogen, 46-0032-82), eFluor 506-conjugated anti-mouse CD45 antibody (Thermo Fisher, 69-0451-82). CD45+CD3−CD11b+ cells were monocytes from PBMC.
After washing, centrifugation and fixation, the cells were permeabilized and further incubated with antibodies of H3K27m3 (Tri-Methyl-Histone H3 (Lys27) (C36B11) Rabbit mAb (PE Conjugate), CST, 40724S) and H3 (Histone H3 (D1H2) XP® Rabbit mAb (Alexa Fluor®647 Conjugate), CST, 12230S), followed by FACS analysis to quantify the mean fluorescence intensity of target cells. The ratio between the fluorescence intensity of H3K27me3 and H3 were used to reflect the level of H3K27me3 in the cells.

Hbb-bh1 mRNA = Hbb-bh1 mRNA level in whole blood (qPCR, relative to GAPDH); format: in vivo, CD-1 mice
Experimental: as §1
Mouse Hbb-bh1 gene, the homolog to human HBG1 gene encoding γ hemoglobin, is used as an efficacy biomarker in wide-type CD-1 mice. One hundred and twenty μL whole blood was collected for RNA isolation following the instructions of Trizol LS reagent (Invitrogen, 10296028). The relative expression of Hbb-bh1 mRNA to GAPDH mRNA were quantified by qPCR. The relative expression of Hbb-bh1 mRNA in the whole blood of CD-1 mice increased with increasing dose of Cpd. 73 from 3 mg/kg (qd×5 days) to 90 mg/kg (qd×5 days). The Hbb-bh1 mRNA levels were 82.2%, 114.6% and 178.3% of the vehicle control group when Cpd. […] 73 (p<0.05, vs. vehicle). The increased expression of Hbb-bh1 mRNA may result in increased expression of mouse βh1 hemoglobin.

[2] = tested on: HbF+ cells in human CD34+ HSC; test: HbF+ cell % in human CD34+ HSC by FACS; format: cell-based; conditions: 7 days of treatment
Experimental: Human cord blood CD34+ hematopoietic stem cells (HSC) were first expanded in the expansion medium (StemSpan SFEM II+StemSpan CD34 Expansion Supplement) to achieve the desired number of cells, and then differentiated in differentiation medium (StemSpan SFEM II+StemSpan Erythroid Expansion Supplement (100×)) for three days without drug treatment. Various concentrations of Cpd. 73 were added on the fourth day of differentiation and further incubated with the cells for another 7 days. 33 mM Hydroxyurea was used as the control.
After 7 days of treatment, the cells were collected and stained with PE-conjugated Mouse Anti-Human Fetal Hemoglobin (BD, 560041). The percentage of HbF+ cells were quantified by FACS. […] 73 respectively. […] 73 where HbF+ cell % was 2.58-folds of the vehicle group (p<0.0001). The % of HbF+ cells was 1.82-folds of the vehicle group when the cells were treated with 33 mM Hydroxyurea.

[3] = tested on: DSS induced IBD in C57BL/6 mice; test: DSS induced inflammatory bowel disease (IBD) model; format: in vivo; conditions: 90 mg/kg po qd day 0 to day 7
From the text: Female C57BL/6 mice (8 weeks old) were obtained from Beijing Vital River Laboratory Animal Co. Ltd. Animals were housed and handled in a temperature-controlled environment with a 12-h light/12-h dark cycle. A total of 30 mice were assigned to 3 groups by randomization based on body weight.
On Day 0, colitis was induced by administration of 3% DSS (dextran sodium sulfate, molecular weight 36,000-50,000) in drinking water ad libitum for 8 days. 8-week-old mice were divided into 3 groups: Group 2, DSS treatment group (vehicle, po, qd, from day 0 to day 7); Group 3, DSS with 90 mg/kg Cpd. 73 (po, qd, from day 0 to day 7); and the Group 1 (G1) Naive group, the mice were provided drinking water without DSS. The protocols and procedures involving the care and use of animals were approved by the Institutional Animal Care and Use Committee (IACUC) at Wuxi Apptec (Shanghai, China).
At the end of the study, the animals were euthanized, dissected and the entire colon was quickly removed and gently cleared of feces.
At the end of the study (day 8), all the animals were sacrificed by CO2. The colon was Swiss-rolled and fixed with neutralized PFA followed by H&E staining. After that, the pathologists from WuXi clinical pathological analysis platform, who were blinded to animal ID, reviewed the H&E staining and scored. […]

## CC(C)N1Cc2cc(C(F)(F)F)ncc2-c2cnc(NCc3c(F)ccc4c3CCO4)n3cnc(c23)C1=O [Cpd. 73, 12-(((5-fluoro-2,3-dihydrobenzofuran-4-yl)methyl)amino)-4-isopropyl-7-(trifluoromethyl)-4,5-dihydro-3H-2,4,8,11,12a-pentaazabenzo[4,5]cycloocta[1,2,3-cd]inden-3-one]
[1]; 3 mg/kg po qd×5 days
  percent of decrease of H3K27me3 level: 17.9%
[1]; 10 mg/kg po qd×5 days
  percent of decrease of H3K27me3 level: 40.5%
[1]; 30 mg/kg po qd×5 days
  percent of decrease of H3K27me3 level: 8.8%
[1]; 90 mg/kg po qd×5 days
  percent of decrease of H3K27me3 level: 41.2%
Hbb-bh1 mRNA; 3 mg/kg po qd×5 days
  Hbb-bh1 mRNA level, of the vehicle control group: 82.2%
Hbb-bh1 mRNA; 10 mg/kg po qd×5 days
  Hbb-bh1 mRNA level, of the vehicle control group: 114.6%
Hbb-bh1 mRNA; 30 mg/kg po qd×5 days
  Hbb-bh1 mRNA level, of the vehicle control group: 178.3%
Hbb-bh1 mRNA; 90 mg/kg po qd×5 days, p<0.05 vs vehicle
  Hbb-bh1 mRNA, fold of increase: 3.04 fold
[2]; 0.01 μM
  % of HbF+ cells, folds of the vehicle group: 0.73 folds
[2]; 0.03 μM
  % of HbF+ cells, folds of the vehicle group: 0.86 folds
[2]; 0.1 μM
  % of HbF+ cells, folds of the vehicle group: 1.50 folds
[2]; 0.3 μM
  % of HbF+ cells, folds of the vehicle group: 1.73 folds
[2]; 1.0 μM, maximal effect, p<0.0001
  % of HbF+ cells, folds of the vehicle group: 2.58 folds
[3]; day 8, vehicle 10.10±0.18
  pathological score (H&E, colon): 8.30±0.54
[3]; vehicle 50.88±2.53
  colon density (colon weight/colon length): 41.86±2.57
